Measurements reported in patent US8569316B2, “Pyrimido [5,4-D] pyrimidine derivatives for the inhibition of tyrosine kinases” (Boehringer Ingelheim International GmbH, priority 2009, dated 2013).

These molecules were tested against B-Raf (V600E)-kinase (Homo sapiens (Human), UniProt P15056, V600E) (assay: Kinase test B-Raf (V600E)). Conditions: 250 μM ATP, biotinylated MEK1 substrate.
Type: biochemical
Method: In a dilution series 10 μL of test substance solution are placed in a multiwell plate. The dilution series is selected so that generally a range of concentrations of 2 μM to 0.128 nM or 0.017 nM is covered. If necessary the initial concentration of 2 μM is changed to 50 μM, 10 μM or 0.4 μM or 0.2857 μM and further dilution is carried out accordingly. The final concentration of DMSO is 5%. 10 μL of the B-Raf (V600E)-kinase solution are pipetted in (containing 0.5 ng B-Raf (V600E)-kinase in 20 mM Tris-HCl pH 7.5, 0.1 mM EDTA, 0.1 mM EGTA, 0.286 mM sodium orthovanadate, 10% glycerol, 1 mg/mL bovine serum albumin, 1 mM dithiothreitol) and the mixture is incubated for 1 h at RT under with shaking. The kinase reaction is started by the addition of 20 μL ATP solution [final concentration: 250 μM ATP, 30 mM Tris-HCl pH 7.5, 0.02% Brij, 0.2 mM sodium orthovanadate, 10 mM magnesium acetate, phosphatase cocktail (Sigma, #P2850, dilution recommended by the manufacturer), 0.1 mM EGTA] and 10 μL MEK1 solution [containing 50 ng biotinylated MEK1 (prepared from purified MEK1 according to standard procedure, e.g. with EZ-Link Sulpho-NHS-LC-Biotin reagent, Pierce, #21335) in 50 mM Hepes pH 7.5, 150 mM NaCl, 10% glycerol, 0.02% Brij-35, 0.2 mM PMSF, 0.2 mM benzamidine] and carried out for 60 min at RT with constant shaking. The reaction is stopped by the addition of 12 μL of a 100 mM EDTA solution and incubation is continued for a further 5 min. 55 μL of the reaction solution are transferred into a streptavidin-coated plate (e.g. Streptawell HighBond, Roche, #11989685001) and shaken gently for 1 h at RT, in order to bind biotinylated MEK1 to the plate. After elimination of the liquid the plate is washed five times with 200 μL of 1×PBS and 100 μL solution of primary antibody plus europium-labelled secondary antibody [Anti Phospho-MEK (Ser217/221), Cell Signaling, #9121 and Eu-N1 labeled goat-anti-rabbit antibody, Perkin Elmer, #AD0105], the primary antibody is diluted 1:2000 and the secondary antibody is diluted to 0.4-0.5 μg/mL in Delfia Assay Buffer (Perkin Elmer, #1244-111). After 1 h shaking at RT the solution is poured away and washed five times with 200 μL Delfia Wash Buffer (Perkin Elmer, #4010-0010/#1244-114). After the addition of 200 μL Enhancement Solution (Perkin Elmer, #4001-0010/#1244-105) the mixture is shaken for 10 min at RT and then measured in a Wallac Victor using the program “Delfia Time Resolved Fluorescence (Europium)”. IC50 values are obtained from these dosage-activity curves using a software program (GraphPadPrizm).

B-Raf (V600E)-kinase, sequence (P15056 whole entry V600E): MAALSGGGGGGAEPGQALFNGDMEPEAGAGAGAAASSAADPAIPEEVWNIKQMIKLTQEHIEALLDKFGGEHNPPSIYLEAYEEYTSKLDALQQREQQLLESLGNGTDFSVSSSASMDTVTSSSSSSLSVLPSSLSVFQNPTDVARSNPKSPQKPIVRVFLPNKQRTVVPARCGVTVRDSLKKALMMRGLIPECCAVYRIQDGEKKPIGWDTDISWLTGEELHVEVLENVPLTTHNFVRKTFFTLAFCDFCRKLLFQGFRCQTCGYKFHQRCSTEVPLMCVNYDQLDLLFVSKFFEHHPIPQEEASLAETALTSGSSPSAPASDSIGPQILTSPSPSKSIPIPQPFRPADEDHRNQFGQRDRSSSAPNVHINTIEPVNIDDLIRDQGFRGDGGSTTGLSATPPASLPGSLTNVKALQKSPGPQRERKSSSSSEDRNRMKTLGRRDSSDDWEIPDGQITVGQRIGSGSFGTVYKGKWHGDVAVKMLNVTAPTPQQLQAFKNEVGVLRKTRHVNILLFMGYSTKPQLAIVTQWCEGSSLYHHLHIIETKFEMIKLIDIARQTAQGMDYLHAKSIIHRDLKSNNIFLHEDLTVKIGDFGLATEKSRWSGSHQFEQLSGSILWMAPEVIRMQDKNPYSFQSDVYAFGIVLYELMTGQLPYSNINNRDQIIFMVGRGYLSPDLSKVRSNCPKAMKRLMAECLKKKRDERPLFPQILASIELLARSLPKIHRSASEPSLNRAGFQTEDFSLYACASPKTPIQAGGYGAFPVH

SMILES	IC50
COc1c(NC(=O)c2ccc(C)c(Nc3ncnc4ccc(N5CCN(CCN6CCOCC6)CC5)nc34)c2)cc(C(C)(C)C)cc1NS(C)(=O)=O [III-25]	638 nM
COc1c(NC(=O)c2ccc(C)c(Nc3ncnc4ccc(C)nc34)c2)cc(C(C)(C)C)cc1NS(C)(=O)=O [III-28]	431 nM
COc1c(NC(=O)c2ccc(C)c(Nc3ncnc4ccc(C5CCNC5)nc34)c2)cc(C(C)(C)C)cc1NS(C)(=O)=O (stereo not drawn) [III-39]	151 nM
COc1c(NC(=O)c2ccc(C)c(Nc3ncnc4ccc(C5CCNCC5)nc34)c2)cc(C(C)(C)C)cc1NS(C)(=O)=O [III-31]	70 nM
COc1c(NC(=O)c2ccc(C)c(Nc3ncnc4ccc(C5CCN(C)C5)nc34)c2)cc(C(C)(C)C)cc1NS(C)(=O)=O (stereo not drawn) [III-40]	286 nM
COCCN1CCN(c2ccc3ncnc(Nc4cc(C(=O)Nc5cc(C(C)(C)C)on5)ccc4C)c3n2)CC1 [III-11]	35 nM

Stronger by IC50, values ahead:

IC50	SMILES
9 nM	Cc1ccc(C(=O)Nc2cc(C(C)(C)C)on2)cc1Nc1ncnc2ccc(N(C)C)nc12 [III-17]
7 nM	Cc1ccc(C(=O)Nc2cccc(C(C)(C)C#N)c2)cc1Nc1ncnc2ccc(N3CCOCC3)nc12 [III-3]
25 nM	COc1c(NC(=O)c2ccc(C)c(Nc3ncnc4ccc(N5CC[C@@H](F)C5)nc34)c2)cc(C(C)(C)C)cc1NS(C)(=O)=O [III-22]
